pEC50, pIC50: −log10 of the molar value. Read-outs that look alike come from different tables or passages of the source.

As a reminder, the pIC50 is the negative decadic logarithm of the IC50, by convention in mol/L. As a reminder, the pEC50 is the EC50 on a negative log10 scale, so that one unit is a factor of ten.

Data set [1] addresses over expressed HSD17β13 in HEK293S cells (Homo sapiens (Human), UniProt Q7Z5P4). Put plainly: In Vitro 17bHSD13 Cell Assay. It is filed as cell-based. The gist of the method: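 HEK293S cells overexpressing HSD17β13 convert estradiol to estrone; product read by LC-MS/MS (APCI, positive MRM) as AUC ratio estrone/(estrone+estradiol). Effect normalised between DMSO and maximal inhibition by a known inhibitor control; IC50 from curve fit.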

The target of data set [2] is recombinant 17bHSD4 (M1-N311) (Homo sapiens (Human), UniProt P51659). Nature of the data set: In Vitro 17bHSD4 Enzyme Assay. It is filed as biochemical. Conditions: 40 nM 17bHSD4, 0.125 mM NAD, 15 μM Estradiol, 1.5 h; NADH fluorescence; read-out: 17HSD17b4 Enzyme assay IC50.
Sequence of recombinant 17bHSD4 (M1-N311) (P51659 1-311): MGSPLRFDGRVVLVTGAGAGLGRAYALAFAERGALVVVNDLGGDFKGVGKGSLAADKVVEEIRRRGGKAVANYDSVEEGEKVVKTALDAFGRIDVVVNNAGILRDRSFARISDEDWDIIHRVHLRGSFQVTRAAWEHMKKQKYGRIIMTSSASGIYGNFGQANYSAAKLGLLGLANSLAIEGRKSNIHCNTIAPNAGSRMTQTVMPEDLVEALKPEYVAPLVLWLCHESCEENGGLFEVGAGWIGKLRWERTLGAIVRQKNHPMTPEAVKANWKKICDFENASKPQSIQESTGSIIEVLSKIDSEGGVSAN
Data set [3] concerns the target over expressed HSD17β9 in HEK293S cells (Homo sapiens (Human), UniProt Q92781). Put plainly: In Vitro 17bHSD9 Cell Assay. It counts as cell-based. The gist of the method: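 HEK293S cells overexpressing HSD17β9 were plated at 10K cells/well in DMEM + 10% FBS and cultured 18 h. Retinol-to-retinal conversion in media was quantified by LC-MS/MS (MRM) as retinal/(retinal + retinol). IC50 was fitted after normalisation to DMSO and full inhibition by a reference inhibitor.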

In data set [4] the target is recombinant 17bHSD13 (N2-K300) (Homo sapiens (Human), UniProt Q7Z5P4). Put plainly: In Vitro 17bHSD13 Enzyme Assay. It is filed as biochemical. Conditions: 80 nM 17bHSD13, 0.5 mM NAD, 20 μM Estradiol, 2.5 h; estradiol to estrone by LC-MS/MS. The gist of the method:
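Human 17bHSD13 (N2-K300, 80 nM) with 0.5 mM NAD, 20 μM estradiol and varied compound in 50 mM Tris-Cl pH 7.4, 5 mM EDTA, 0.01% DDM. Estrone/(estrone+estradiol) ratio read by LC-MS/MS (APCI, positive MRM). Inhibition normalised to DMSO and a known-inhibitor control; IC50 from curve fit.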

Data set [5] addresses CYP2C9 (Homo sapiens (Human), UniProt P11712). Nature of the data set: Assay B: Cytochrome P450 Inhibition 2C9.
Description: A fluorescence-based method in 96-well format was used to determine the inhibition of 2C9 (Crespi, C. L. et al., Microtiter plate assays for inhibition of human, drug-metabolizing cytochromes P450. Anal Biochem 1997, 248 (1), 188-190. DOI: 10.1006/abio.1997.2145, which is incorporated herein by reference). The recombinant human enzymes used were prepared in house, except for CYP2D6 (CYPEX LTD, Dundee, UK). Different coumarin substrates, biotransformed into fluorescent metabolites, were used as probes for each individual CYP. A fluorescence plate reader (SPECTRAMAX GEMINIXS, MOLECULAR DEVICES, Sunnyvale, California, USA) was used to measure the levels of metabolites formed. A dilution series of the test substrates was prepared at eight different concentrations. For each CYP, a mixture of the enzyme, corresponding coumarin substrate, potassium phosphate buffer pH 7.4 and water (concentrations and volumes were CYP-dependent) were added to each well in a black 96-well plate. The test substrates at different concentrations were added. After 10 min pre-incubation, the co-factor NADPH was added to initiate the reaction. After 20-50 min (CYP and substrate-dependent) the reaction was terminated by addition of trisbase/MeCN (20:80). The plates were transferred to the fluorescence plate reader where the wavelengths were set individually for the different coumarin substrates and their respective fluorescent metabolite. The responses were exported to Excel where the IC50 curves were plotted (percent inhibition versus concentration) and IC50 values calculated for each test substrate and enzyme using XL-fit.
In data set [6] the test system is human hepatocytes. Nature of the data set: Assay A: Metabolic Stability in Human Hepatocytes. It is filed as in vitro ADME. The conditions noted are these: cryopreserved human hepatocytes, 10^6 viable cells/mL, 1 μM compound, 37° C. As to the method:
Assay A: Metabolic Stability in Human Hepatocytes
Hepatocyte metabolic stability was determined in accordance with the method described by Jacobson et al., An optimized automated assay for determination of metabolic stability using hepatocytes: assay validation, variance component analysis, and in vivo relevance. Assay Drug Dev Technol 2007, 5 (3), 403-415. DOI: 10.1089/adt.2007.059, which is incorporated herein by reference. Cryopreserved hepatocytes at a concentration of 10^6 viable cells/mL were used. After thawing, hepatocytes were incubated for 10 min to warm to 37° C. and test compounds, dissolved in acetonitrile, were added to give a final concentration of 1 μM. At 0.5, 5, 15, 30, 45, 60, 80, 100 and 120 min, the incubation system was mixed and 20 μL aliquots were transferred at each time point to wells in a separate plate filled with 80 μL MeCN to stop the reaction. The quenching plate was then vortexed followed by centrifugation, and supernatants were analyzed by LC-MS/MS. Peak areas were determined from extracted ion chromatograms, and the in vitro intrinsic clearance (in vitro CLint, in μL/min/10^6 cells) of parent compound was calculated from the slope in the regression analysis of the natural logarithm of parent concentration vs time curve.

The target in data set [7] is human CB1 receptor expressed in transfected CHO cells (Homo sapiens (Human), UniProt P21554). Nature of the data set: Assay C: CB1 Agonism Assay. The conditions noted are these: agonist activity, cAMP HTRF, read-out: Assay C: CB1 Hu CHO cAMP TRF Ag CR GMean EC50. It counts as cell-based. On the procedure: Assay C: CB1 Agonism Assay
Sequence of human CB1 receptor expressed in transfected CHO cells (P21554 whole entry): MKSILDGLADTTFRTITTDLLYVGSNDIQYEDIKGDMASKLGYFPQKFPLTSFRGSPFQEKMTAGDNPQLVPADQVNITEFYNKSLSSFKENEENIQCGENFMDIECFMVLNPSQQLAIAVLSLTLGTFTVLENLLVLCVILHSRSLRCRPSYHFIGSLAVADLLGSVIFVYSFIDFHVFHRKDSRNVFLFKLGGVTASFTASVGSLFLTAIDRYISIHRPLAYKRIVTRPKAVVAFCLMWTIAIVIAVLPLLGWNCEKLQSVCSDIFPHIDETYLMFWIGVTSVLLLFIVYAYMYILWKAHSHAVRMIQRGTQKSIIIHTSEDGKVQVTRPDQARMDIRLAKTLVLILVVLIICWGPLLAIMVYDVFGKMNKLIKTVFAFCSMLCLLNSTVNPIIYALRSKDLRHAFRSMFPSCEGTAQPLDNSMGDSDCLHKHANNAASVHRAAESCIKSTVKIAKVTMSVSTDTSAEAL
Evaluation of the agonist activity of compounds at the human CB1 receptor expressed in transfected CHO cells, determined by measuring their effects on cAMP modulation using the HTRF detection method.
Thereafter, the adenylyl cyclase activator NKH 477 is added at a final concentration of 3 μM. Following 20 min incubation at 37° C., the cells are lysed and the fluorescence acceptor (D2-labeled cAMP) and fluorescence donor (anti-cAMP antibody labeled with europium cryptate) are added. After 60 min at room temperature, the fluorescence transfer is measured at gex=337 nm and gem=620 and 665 nm using a microplate reader (RUBYSTAR, BMG). The cAMP concentration is determined by dividing the signal measured at 665 nm by that measured at 620 nm (ratio). The results are expressed as a percent of the control response to 30 nM CP 55940. The standard reference agonist is CP 55940, which is tested in each experiment at several concentrations to generate a concentration-response curve from which its EC50 value is calculated.
Bibliographic reference Felder, C. C. et al., (1995), Comparison of the pharmacology and signal transduction of the human cannabinoid CB1 and CB2 receptors, Mol. Pharmacol., 48: 443, which is incorporated herein by reference.

Sequence of CYP2C9 (P11712 whole entry): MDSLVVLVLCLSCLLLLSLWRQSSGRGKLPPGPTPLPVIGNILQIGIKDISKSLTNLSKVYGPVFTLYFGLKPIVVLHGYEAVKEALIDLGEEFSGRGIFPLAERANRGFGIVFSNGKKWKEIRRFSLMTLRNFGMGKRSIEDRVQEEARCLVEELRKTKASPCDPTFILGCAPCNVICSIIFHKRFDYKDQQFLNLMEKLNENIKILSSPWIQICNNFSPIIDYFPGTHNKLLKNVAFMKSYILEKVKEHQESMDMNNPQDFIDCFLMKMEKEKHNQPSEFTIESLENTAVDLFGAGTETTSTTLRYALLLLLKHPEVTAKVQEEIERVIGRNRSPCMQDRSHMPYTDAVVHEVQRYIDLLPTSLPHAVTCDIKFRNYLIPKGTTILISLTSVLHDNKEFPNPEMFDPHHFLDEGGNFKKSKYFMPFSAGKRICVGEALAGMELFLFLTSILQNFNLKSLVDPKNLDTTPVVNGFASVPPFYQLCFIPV
Sequence of over expressed HSD17β13 in HEK293S cells (Q7Z5P4 20-300): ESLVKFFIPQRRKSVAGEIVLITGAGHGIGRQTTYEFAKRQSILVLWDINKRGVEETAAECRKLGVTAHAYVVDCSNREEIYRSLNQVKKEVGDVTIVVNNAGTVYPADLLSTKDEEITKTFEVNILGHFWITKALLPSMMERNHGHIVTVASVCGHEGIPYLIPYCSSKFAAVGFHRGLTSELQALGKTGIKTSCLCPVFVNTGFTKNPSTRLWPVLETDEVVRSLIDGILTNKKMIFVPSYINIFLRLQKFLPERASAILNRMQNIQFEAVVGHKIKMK
Sequence of recombinant 17bHSD13 (N2-K300) (Q7Z5P4 2-300): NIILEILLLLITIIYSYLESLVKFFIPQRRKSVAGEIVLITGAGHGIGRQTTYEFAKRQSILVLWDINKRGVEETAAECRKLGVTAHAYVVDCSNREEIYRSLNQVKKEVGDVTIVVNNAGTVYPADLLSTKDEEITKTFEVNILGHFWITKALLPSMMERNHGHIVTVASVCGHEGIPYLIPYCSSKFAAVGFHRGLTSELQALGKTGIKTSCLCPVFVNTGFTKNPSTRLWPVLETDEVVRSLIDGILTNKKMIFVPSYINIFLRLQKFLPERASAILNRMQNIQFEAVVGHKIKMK
Sequence of over expressed HSD17β9 in HEK293S cells (Q92781 whole entry): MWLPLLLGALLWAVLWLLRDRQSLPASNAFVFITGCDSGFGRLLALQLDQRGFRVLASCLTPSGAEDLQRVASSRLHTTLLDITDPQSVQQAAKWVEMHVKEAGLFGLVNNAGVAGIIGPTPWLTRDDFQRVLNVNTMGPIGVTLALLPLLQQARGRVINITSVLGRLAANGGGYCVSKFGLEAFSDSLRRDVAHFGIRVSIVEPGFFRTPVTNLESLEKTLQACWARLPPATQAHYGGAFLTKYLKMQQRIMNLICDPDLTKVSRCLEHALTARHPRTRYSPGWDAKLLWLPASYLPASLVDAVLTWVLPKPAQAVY

As to `N#CC1(c2ccccc2)CCN(C(=O)c2noc(-c3cc(F)c(F)c(O)c3F)n2)CC1` [Example 80, 4-Phenyl-1-(5-(2,4,5-trifluoro-3-hydroxyphenyl)-1,2,4-oxadiazole-3-carbonyl)piperidine-4-carbonitrile], the pIC50 is 6.34 in data set [1]; 4.66 in data set [2]; 5.09 in data set [3]; 6.95 in data set [4]; 5.48 in data set [5]. Moreover, the “Assay A: Human Heps Met Clint GMean CLint (μl/min/1E6)” value in data set [6] was found to be 9.8 μl/min/1E6.

In the case of `N#Cc1cccc(C2CN(C(=O)c3noc(-c4cc(F)c(F)c(O)c4F)n3)C2)c1` [Example 85, 3-(1-(5-(2,4,5-Trifluoro-3-hydroxyphenyl)-1,2,4-oxadiazole-3-carbonyl)azetidin-3-yl)benzonitrile], the pIC50 in data set [1] (HEK293S cells over expressing HSD17β13, estradiol to estrone conversion, 18 h, LC-MS/MS, read-out: 17bHSD1713 Cell assay IC50) is 5.47; in data set [2] it was 4.66; in data set [4], 6.50; in data set [5], 5.47. Besides, the pEC50 in data set [7] was 5.03. In addition, in data set [6], the “Assay A: Human Heps Met Clint GMean CLint (μl/min/1E6)” value was determined as 14.1 μl/min/1E6.

These data come from patent publication US20250011311A1, “AMIDO HETEROAROMATIC COMPOUNDS” (AstraZeneca AB, priority 2022, published 2025).
